In patent US6004952A, “Micacocidin derivatives” (Shinogi & Co., Ltd., priority 1996, dated 1999):
≈ marks a conversion by molar mass, not a printed value. Where two headings read alike, the source gives them in different places.

Legend:
[1] = Cytotoxicity to primary chicken kidney culture cells; type: cell-based; details: primary chicken kidney cells
[2] = test system: Candida albicans; assay: Antifungal activity, micro-liquid dilution method, Candida albicans; type: cell-based, Candida albicans strain Ca-15; details: Candida albicans, 24 h, 30° C., read-out: Antifungal activities: IC50
Method: (§1) Antifungal activities of the compounds to Candida albicans (strain Ca-15) and Asperilhm fumigatus (strain MA), representative pathogenic fungi, were determined by micro-liquid dilution method using 96-well microplates. A fungal suspension stored under freezing was adjusted to 1×1 O^5 CFU/ml by medium, of which 100 μl portions were charged into each well. The compound of the present invention was dissolved in dimethylsulfoxide (DMSO). Using the resultant solution, 2-fold dilution series were prepared together with the fungal suspension charged into the wells. YNB medium and RPMI medium were used. After cultured for 24 hours at 30° C., evaluation was performed by detecting the turbidity (wave length: 595 nm) using microplate reader.

[3] = test system: M. gallisepticum; assay: MIC, liquid dilution method, Mycoplasma gallisepticum; details: Mycoplasmoides gallisepticum
[4] = test system: Serpulina hyodysenteriae; assay: MIC, agar dilution method, anaerobic, Serpulina hyodysenteriae; type: cell-based, S. hyodysenteriae ATCC 27164; details: for MIC: Brachyspira hyodysenteriae, ATCC27164
[5] = test system: Aspergillus fumigatus; assay: Antifungal activity, micro-liquid dilution method, Aspergillus fumigatus; type: cell-based, Aspergillus fumigatus strain MA; details: Aspergillus fumigatus, 24 h, 30° C., read-out: Antifungal activities: IC50
Method: as §1

[6] = test system: M. hyopneumoniae; assay: MIC, liquid dilution method, Mycoplasma hyopneumoniae; details: Mesomycoplasma hyopneumoniae
[7] = test system: Eimeria tenella; assay: Growth inhibition activities to avian coccidium in primary chicken kidney cells; type: cell-based; details: for minimal effective concentration: Eimeria tenella
Method: The kidneys of SPF new born chicken was sterilely removed, which was treated with trypsin and the resultant primary kidney cells were cultured in 24-well plate. Monolayer culture after cultured for 3 days was treated simultaneously with compounds adjusted to predetermined concentration and sporozoit obtained by artificial excystation, which was cultured a 40° C. Premature and mature schizonts were observed under microscope, and the growth inhibition activities (suppression rate) for each treatment group were calculated at a proportion of the number of schizonts for the sporozoit-inoculated, compound-untreated control group (100%).

[8] = test system: mice spleen cells; assay: Suppression of reaction of mice spleen cells to Concanavalin A, in vitro (MTT); type: cell-based, BDF1 mice; details: for inhibition at 0.312 µg/mL: 312 ng/ml; for inhibition at 0.625 µg/mL: 625 ng/ml; for inhibition at 0.039 µg/mL: 39 ng/ml; for inhibition at 0.078 µg/mL: 78 ng/ml; for inhibition at 0.156 µg/mL: 156 ng/ml
Method: (§2) To each well of 96 well microtiter plate were added 5×10^5 spleen cells of BDF1 mice suspended in 0.1 ml of RPMI 1640 medium supplemented with 10% bovine fetus serum (supplemented with 2 mM sodium hydrogen carbonate, 50 Units/ml of penicillin, 50 μg/ml of streptomycin, and 5×10^-5 M of 2-mercaptoethanol), and then, 5 μg/ml of Concanavalin A (Con A) or 10 μg/ml of lypopolysaccaride (LPS) and various concentrations of test substance, of which final volume was adjusted to 0.2 ml. Test substances were dissolved in dimethylsulfoxide (DMSO), diluted with RPMI 1640 stated above, and added to the wells so that final concentration of the substances becomes less than 10000 ng/ml. The 96-well microtiter plates were cultured at 37° C. for 3 days in an incubator which was maintained at the humidity of 100%, 5% of carbon dioxide and 95% of air. After cultivation is completed, […] of 6 mg/ml solution of MTT {3-(4,5-dimethylthiazol-2yl)-2,5 diphenyltetrazoliumbromide} (Sigma) is added to each well, which is cultured at 37° C. for […] under the same conditions. After cultivation is completed, formazan formed is dissolved by adding 50 μl of a solution of 20% dodecyl sodium sulfonate (SDS) in 0.02N hydrochloric acid and kept standing at 37° C. for 24 hours. The absorbance (OD) of the formazan which was produced in proportion to the number of alive cells, was determined by using immunoreader equipped with 570 nm filter (see The Journal of Immunological Methods, Vol.65, 55-63, 1983).
(§3) Cell growth inhibition rate and IC50 value were calculated according to the correlation between the concentration and the absorbance for each substance.

[9] = test system: mice spleen cells; assay: Suppression of reaction of mice spleen cells to lypopolysaccaride (LPS), in vitro (MTT); type: cell-based, BDF1 mice; details: for inhibition at 0.312 µg/mL: 312 ng/ml; for inhibition at 0.625 µg/mL: 625 ng/ml; for inhibition at 0.039 µg/mL: 39 ng/ml; for inhibition at 0.078 µg/mL: 78 ng/ml; for inhibition at 0.156 µg/mL: 156 ng/ml
Method: as §2, §3

[10] = test system: Mycoplasma; assay: MIC to Mycoplasmas (summary in words); type: cell-based
[11] = test system: Clostridium perfringens; assay: microbe, parasite or virus in culture; type: cell-based, C. perfringens ATCC 13124; details: for MIC: Clostridium perfringens, ATCC13124
[12] = test system: M. pneumoniae; assay: MIC, liquid dilution method, Mycoplasma pneumoniae; details: Mycoplasmoides pneumoniae
[13] = test system: primary kidney culture cells; assay: Cytotoxicity to primary chicken kidney culture cells; type: cell-based; details: at the same concentration
[14] = test system: S. aureus; assay: MIC, agar dilution method, S. aureus; type: cell-based; details: Staphylococcus aureus, FDA209P; S. aureus FDA 209P
[15] = more than 80% of suppression rate regarded as effective, read-out: Effective dose (growth inhibition)
[16] = Mus musculus, 72 h, Con A, read-out: Suppression rate
[17] = Mus musculus, 72 h, LPS, read-out: Suppression rate
[18] = read-out: Concentrations showing growth inhibition effects

| SMILES | MCC [1] [µg/mL] | IC50 ([2]; RPMI medium) [µg/mL] | IC50 ([2]; YNB medium) [µg/mL] | MIC [3] [µg/mL] | activity to Serpulina (Treponema) hyodysenteriae [4] | IC50 ([5]; RPMI medium) [µg/mL] | IC50 ([5]; YNB medium) [µg/mL] | MIC [6] [µg/mL] | minimal effective concentration [7, 15] [µg/mL] | suppression of the reaction to Con A of spleen cells [8] | inhibition at 0.312 µg/mL [8, 16] [%] | inhibition at 0.625 µg/mL [8, 16] [%] | IC50 ([8]; Mus musculus, Con A) [µg/mL] | suppression of the reaction to LPS of spleen cells [9] | inhibition at 0.312 µg/mL [9, 17] [%] | inhibition at 0.625 µg/mL [9, 17] [%] | IC50 ([9]; Mus musculus, LPS) [µg/mL] | MICs to Mycoplasmas [10] | activity to Clostridium perflingens [11] | MIC [12] [µg/mL] | further results |
| --- | --- | --- | --- | --- | --- | --- | --- | --- | --- | --- | --- | --- | --- | --- | --- | --- | --- | --- | --- | --- | --- |
| CCCCCc1cccc(O)c1C1=NC(C2SCC(C(O)C(C)(C)C3=NC(C)(C(=O)OCOC)CS3)N2C)CS1 (stereo not shown) [Compound 20] | > 10 | 3.2 (≈ 5.25 µM) | > 100 | 0.1 (≈ 0.164 µM) | showed the activity | > 100 | > 100 | 0.025 (≈ 0.041 µM) | 0.625 | suppressed | 0 | 102 | 0.506 (≈ 0.83 µM) | suppressed | 2.1 | 98.8 | 0.38 (≈ 0.623 µM) | low MICs | showed the activity | ≤ 0.00625 | MIC [4]: 1.56 µg/mL (≈ 2.56 µM); inhibition at 1.25 µg/mL ([8]; Mus musculus, 72 h, Con A, 1250 ng/ml, read-out: Suppression rate): 101%; inhibition at 2.5 µg/mL ([8]; Mus musculus, 72 h, Con A, 2500 ng/ml, read-out: Suppression rate): 101%; inhibition at 1.25 µg/mL ([9]; Mus musculus, 72 h, LPS, 1250 ng/ml, read-out: Suppression rate): 98.2%; inhibition at 2.5 µg/mL ([9]; Mus musculus, 72 h, LPS, 2500 ng/ml, read-out: Suppression rate): 96.3%; MIC [11]: 3.13 µg/mL (≈ 5.13 µM) |
| CCCCCc1cccc(O)c1C1=NC(C2SCC(C(O)C(C)(C)C3=NC(C)(C(=O)O)CS3)N2C)CS1 (stereo not shown) [Compound 2] | 10 | 1.6 (≈ 2.83 µM) | 6.3 (≈ 11.1 µM) | – | – | 0.2 (≈ 0.353 µM) | 3.2 (≈ 5.66 µM) | – | 2.5 | – | – | – | – | – | – | – | – | – | – | – | – |
| CCCCCc1cccc(O)c1C1=NC(C2SCC(C(OCOC)C(C)(C)C3=NC(C)(C(=O)OCOC)CS3)N2C)CS1 (stereo not shown) [Compound 19] | 10 | – | – | 6.25 (≈ 9.56 µM) | – | – | – | 1.56 (≈ 2.39 µM) | 0.156 | – | – | – | – | – | – | – | – | – | – | 0.39 (≈ 0.596 µM) | cytotoxicity to the primary kidney culture cells [13]: did not show any cytotoxicity; growth inhibition activities [7]: strong growth inhibition activities; minimal effective concentration [7, 18]: 156 µg/mL |
| CCCCCc1cccc(OC)c1C1=NC(C2SCC(C(O)C(C)(C)C3=NC(C)(C(=O)O)CS3)N2C)CS1 (stereo not shown) [Compound 7] | 10 | – | – | 1.56 (≈ 2.69 µM) | showed the activity | – | – | 0.1 (≈ 0.172 µM) | 0.156 | suppressed | 98 | 101 | 0.129 (≈ 0.222 µM) | suppressed | 98.6 | 102 | 0.084 (≈ 0.145 µM) | low MICs | showed the activity | 0.1 (≈ 0.172 µM) | cytotoxicity to the primary kidney culture cells [13]: did not show any cytotoxicity; MIC [4]: 1.56 µg/mL (≈ 2.69 µM); MIC [14]: 1.56 µg/mL (≈ 2.69 µM); growth inhibition activities [7]: strong growth inhibition activities; minimal effective concentration [7, 18]: 156 µg/mL; inhibition at 0.039 µg/mL [8, 16]: 10%; inhibition at 0.078 µg/mL [8, 16]: 16.5%; inhibition at 0.156 µg/mL [8, 16]: 60.7%; inhibition at 0.039 µg/mL [9, 17]: 17.2%; inhibition at 0.078 µg/mL [9, 17]: 42.5%; inhibition at 0.156 µg/mL [9, 17]: 80%; MIC [11]: 0.1 µg/mL (≈ 0.172 µM) |
| CCCCCc1cccc(OCOC)c1C1=NC(C2SCC(C(O)C(C)(C)C3=NC(C)(C(=O)OCOC)CS3)N2C)CS1 (stereo not shown) [Compound 18] | > 10 | – | – | 1.56 (≈ 2.39 µM) | showed the activity | – | – | 0.05 (≈ 0.0765 µM) | 10 | suppressed | 94.9 | 98.6 | 0.101 (≈ 0.154 µM) | suppressed | 93.4 | 101 | 0.084 (≈ 0.128 µM) | low MICs | showed the activity | 0.025 (≈ 0.0382 µM) | inhibition at 0.039 µg/mL [8, 16]: 14.7%; inhibition at 0.078 µg/mL [8, 16]: 25.7%; inhibition at 0.156 µg/mL [8, 16]: 75.5%; inhibition at 0.039 µg/mL [9, 17]: 27.4%; inhibition at 0.078 µg/mL [9, 17]: 41.5%; inhibition at 0.156 µg/mL [9, 17]: 74.6% |
| CCCCCc1cccc(O)c1C1=NC(C2SCC(C(O)C(C)(C)C3=NC(C)(C(=O)NC(C)C(=O)OC)CS3)N2C)CS1 (stereo not shown) [Compound 28] | > 10 | – | – | 0.39 (≈ 0.599 µM) | – | – | – | 0.1 (≈ 0.154 µM) | 10 | – | – | – | – | – | – | – | – | low MICs | – | 0.05 (≈ 0.0768 µM) | – |
| CCCCCc1cccc(O)c1C1=NC(C2SCC(C(O)C(C)(C)C3=NC(C)(C(=O)OC)CS3)N2C)CS1 (stereo not shown) [Compound 12] | > 10 | – | – | 0.2 (≈ 0.345 µM) | – | – | – | ≤ 0.025 | 0.625 | – | – | – | – | – | – | – | – | low MICs | – | ≤ 0.00625 | – |
| CCCCCc1cccc(O)c1C1=NC(C2SCC(C(O)C(C)(C)C3=NC(C)(C(=O)N(C)O)CS3)N2C)CS1 (stereo not shown) [Compound 25] | – | 6.3 (≈ 10.6 µM) | 50 (≈ 84.1 µM) | – | – | 0.2 (≈ 0.336 µM) | 50 (≈ 84.1 µM) | – | – | – | – | – | – | – | – | – | – | – | – | – | – |
